Tests used:
[1] = biological target: T1, Human fibroblast collagenase (MMP-1) (Homo sapiens, UniProt P03956); assay: Inhibition of purified human fibroblast collagenase in vitro; assay type: biochemical; conditions: read-out: Human fibroblast collagenase (MMP-1): % inhibition at concentration
T1 sequence (P03956 100-469): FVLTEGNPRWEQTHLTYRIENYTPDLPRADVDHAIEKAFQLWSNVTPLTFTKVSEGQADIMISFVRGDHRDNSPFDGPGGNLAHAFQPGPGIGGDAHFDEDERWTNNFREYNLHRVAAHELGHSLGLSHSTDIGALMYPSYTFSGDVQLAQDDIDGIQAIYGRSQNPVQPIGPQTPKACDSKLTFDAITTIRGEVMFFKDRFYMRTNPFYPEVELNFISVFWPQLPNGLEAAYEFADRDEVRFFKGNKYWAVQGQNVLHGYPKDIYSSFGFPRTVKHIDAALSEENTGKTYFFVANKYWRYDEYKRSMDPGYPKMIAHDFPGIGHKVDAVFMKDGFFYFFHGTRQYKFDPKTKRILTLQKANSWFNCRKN
Method: (§1) The experiments were carried out in vitro using purified human enzymes. The enzyme substrates used were substrates to be measured by photometry or fluorometry.

[2] = biological target: Human gelatinase B (MMP-9) (Homo sapiens, UniProt P14780); assay: Inhibition of purified human gelatinase B in vitro; assay type: biochemical
Human gelatinase B (MMP-9), sequence (P14780 94-707): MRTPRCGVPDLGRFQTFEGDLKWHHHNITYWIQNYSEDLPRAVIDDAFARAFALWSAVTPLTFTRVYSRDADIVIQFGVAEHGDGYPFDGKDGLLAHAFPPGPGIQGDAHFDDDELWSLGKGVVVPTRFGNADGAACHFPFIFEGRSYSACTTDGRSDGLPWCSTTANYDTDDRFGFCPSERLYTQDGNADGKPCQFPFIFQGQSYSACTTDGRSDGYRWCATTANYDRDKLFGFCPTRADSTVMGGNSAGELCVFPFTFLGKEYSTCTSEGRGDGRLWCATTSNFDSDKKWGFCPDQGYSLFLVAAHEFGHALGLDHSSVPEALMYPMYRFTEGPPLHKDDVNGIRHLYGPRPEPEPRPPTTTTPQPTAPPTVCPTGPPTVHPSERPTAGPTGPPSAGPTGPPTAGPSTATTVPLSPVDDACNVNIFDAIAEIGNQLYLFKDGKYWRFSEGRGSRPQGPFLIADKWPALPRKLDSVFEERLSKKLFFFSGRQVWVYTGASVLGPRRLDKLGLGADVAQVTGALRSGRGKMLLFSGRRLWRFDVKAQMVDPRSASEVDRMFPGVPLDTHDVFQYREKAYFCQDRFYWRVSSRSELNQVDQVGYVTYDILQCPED
Method: as §1

[3] = biological target: T2, Human elastase (Homo sapiens, UniProt P08246); assay: Inhibition of purified human elastase in vitro; assay type: biochemical
T2 sequence (P08246 30-247 limits assumed): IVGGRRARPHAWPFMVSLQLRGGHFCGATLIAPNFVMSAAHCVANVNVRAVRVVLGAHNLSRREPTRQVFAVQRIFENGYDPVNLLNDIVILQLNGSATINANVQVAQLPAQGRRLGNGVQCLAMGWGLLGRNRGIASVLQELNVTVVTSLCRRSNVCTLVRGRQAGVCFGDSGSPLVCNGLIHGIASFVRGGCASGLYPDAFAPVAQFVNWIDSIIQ
Method: as §1

[4] = biological target: Human leucocyte collagenase (MMP-8) (Homo sapiens, UniProt P22894); assay: Inhibition of purified human leucocyte collagenase in vitro; assay type: biochemical
Human leucocyte collagenase (MMP-8), sequence (P22894 101-467): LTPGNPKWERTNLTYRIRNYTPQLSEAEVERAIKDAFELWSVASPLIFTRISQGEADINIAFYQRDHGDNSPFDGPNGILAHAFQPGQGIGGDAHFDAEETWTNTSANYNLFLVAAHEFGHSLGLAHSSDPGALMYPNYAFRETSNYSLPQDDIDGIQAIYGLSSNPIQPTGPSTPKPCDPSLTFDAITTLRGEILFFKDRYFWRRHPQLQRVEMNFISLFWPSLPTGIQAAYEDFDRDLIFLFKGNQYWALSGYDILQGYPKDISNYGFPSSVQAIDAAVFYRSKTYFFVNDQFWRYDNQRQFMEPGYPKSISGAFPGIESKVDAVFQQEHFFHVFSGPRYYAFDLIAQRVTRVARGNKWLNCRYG
Method: as §1

[5] = biological target: Stromelysin-1 (MMP-3) (Homo sapiens, UniProt P08254); assay: Inhibition of purified stromelysin-1 in vitro; assay type: biochemical
Stromelysin-1 (MMP-3), sequence (P08254 100-477): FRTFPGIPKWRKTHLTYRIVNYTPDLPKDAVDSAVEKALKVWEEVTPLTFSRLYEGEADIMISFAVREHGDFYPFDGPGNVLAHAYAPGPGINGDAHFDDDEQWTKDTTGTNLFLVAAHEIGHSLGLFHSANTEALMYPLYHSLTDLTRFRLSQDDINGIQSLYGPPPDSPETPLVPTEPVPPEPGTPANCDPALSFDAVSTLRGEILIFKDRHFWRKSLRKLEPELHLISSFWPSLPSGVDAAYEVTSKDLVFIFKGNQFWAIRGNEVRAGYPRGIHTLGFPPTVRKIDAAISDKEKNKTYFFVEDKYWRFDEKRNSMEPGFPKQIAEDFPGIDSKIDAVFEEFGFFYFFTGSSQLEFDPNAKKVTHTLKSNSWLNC
Method: as §1

[6] = system: mesenchymal cells from the limb buds of murine embryos (chondrocytes); assay: Organoid model of cartilage formation: mineralisation in the presence of LPS; assay type: cell-based; conditions: concentration of 10 μm; calcium content of extracellular matrix after culturing for 14 days
Method: In a further in vitro experiment, the effectiveness of the compounds as regards inflammatory diseases was tested in an organoid model of cartilage formation. For that model, mesenchymal cells from the limb buds of murine embryos were placed in cell culture. In the cell culture, the cells formed an extracellular matrix corresponding to joint cartilage. Mineralisation of the extracellular matrix was induced by addition of β-glycerophosphate. Cartilage formation and mineralisation were inhibited by addition of bacterial lipopolysaccharide (LPS) as inflammation mediator. The effect of the compounds on the LPS-induced impairment of mineralisation was examined by measuring the calcium content of the extracellular matrix by flame photometry after culturing for 14 days.
The values indicate the percentage increase in mineralisation in comparison with the LPS-treated culture.

SMILES | inhibition at 100 µM [1] [%] | IC50 [2] [µM] | IC50 [3] [µM] | IC50 [4] [µM] | inhibition at 100 µM ([5]; 100 μM, read-out: Stromelysin-1 (MMP-3) % inhibition at concentration) [%] | inhibition at 100 µM ([4]; 100 μM, read-out: Human leucocyte collagenase (MMP-8): % inhibition at concentration) [%] | IC50 [5] [µM] | Chondrocytes: Mineralisation in the presence of LPS; action (percentage increase in mineralisation in comparison with the LPS-treated culture) [6]
Oc1ccc(C=Cc2ccc3ccccc3c2)cc1O [Example 5, 4-(2-naphth-2-yl-vinyl)-1,2-benzene diol] | 40 | 32 | 0.125 | 100 | 22 | – | – | +81%
O=C(c1ccc(O)c(O)c1)c1cc(-c2ccccc2)[nH]n1 [Example 6, (3,4-dihydroxy-phenyl)(5-phenyl-1H-pyrazol-3-yl)-methanone] | – | – | – | – | – | – | – | +17%
OCC#CCCCCCCC#Cc1ccc(O)c(O)c1 [Example 4, 4-(11-hydroxy-undeca-1,9-diynyl)-1,2-benzene diol] | – | – | 55 | – | – | – | – | +12%
COC(=O)C1=Cc2cc(O)c(O)c(O)c2CC1 [Example 1, 5,6,7-trihydroxy-3,4-dihydronaphthalene-2-carboxylic acid methyl ester] | – | 72 | 5.5 | 60 | – | – | 850 | +42%

Continued by falling IC50 [3], values first:

inhibition at 100 µM [1] [%] | IC50 [2] [µM] | IC50 [3] [µM] | IC50 [4] [µM] | inhibition at 100 µM ([5]; 100 μM, read-out: Stromelysin-1 (MMP-3) % inhibition at concentration) [%] | inhibition at 100 µM ([4]; 100 μM, read-out: Human leucocyte collagenase (MMP-8): % inhibition at concentration) [%] | IC50 [5] [µM] | SMILES | Chondrocytes: Mineralisation in the presence of LPS; action (percentage increase in mineralisation in comparison with the LPS-treated culture) [6]
– | – | 2 | 173 | – | – | – | CCCCCC#Cc1ccc(O)c(O)c1C=CC(=O)OC [Example 2, 3-(6-hept-1-ynyl-2,3-dihydroxy-phenyl)-acrylic acid methyl ester] | +38%
– | – | 1.6 | – | – | 40 | 320 | CCCCCCCCCOc1ccc(O)c(O)c1 [Example 3, 4-nonyloxy-1,2-benzene diol] | +43%

From patent publication US6509368B1, “Use of catechol derivatives as proteinase inhibitors” (Gruenenthal GmbH, priority 1998, dated 2003)
